Assay results: ChEMBL document CHEMBL5346878, “SAR study of piperidine derivatives as inhibitors of 1,4-dihydroxy-2-naphthoate isoprenyltransferase (MenA) from Mycobacterium tuberculosis” (Eur J Med Chem, 2023)
In brackets after ≈: the same amount, converted by molar mass. Activity calls are given as the source filed them. The calls are words filed in the database; no cut-off is given here.

Experiments:
[1] = target: T1, 1,4-dihydroxy-2-naphthoate octaprenyltransferase (Mycobacterium tuberculosis, UniProt P9WIP3); assay: Displacement of [3H]FPP from Mycobacterium tuberculosis mc2 6230 membrane protein MenA incubated for 30 mins by liquid scintillation spectrometry; format: cell membranes
T1 sequence (P9WIP3 whole entry): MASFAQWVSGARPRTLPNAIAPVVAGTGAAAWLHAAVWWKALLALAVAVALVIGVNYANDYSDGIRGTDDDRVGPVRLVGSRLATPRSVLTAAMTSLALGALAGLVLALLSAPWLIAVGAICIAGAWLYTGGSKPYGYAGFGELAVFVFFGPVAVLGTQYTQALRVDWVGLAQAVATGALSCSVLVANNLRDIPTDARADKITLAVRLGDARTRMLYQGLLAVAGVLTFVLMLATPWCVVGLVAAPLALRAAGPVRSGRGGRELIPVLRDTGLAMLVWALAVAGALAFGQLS

[2] = tested on: Mycobacterium tuberculosis; assay: Antibacterial activity against Mycobacterium tuberculosis mc2 6230 assessed as bacterial growth inhibition incubated for 5 days by absorbance based assay; format: functional, organism-based; details: mc2 6230, 120 h; for GI50: time 5 day
[3] = tested on: Mycobacterium tuberculosis; assay: Antibacterial activity against Mycobacterium tuberculosis assessed as bacterial growth inhibition; format: functional
[4] = tested on: Mycobacterium tuberculosis; assay: Displacement of 14C-SAM from Mycobacterium tuberculosis membrane MenG assessed as reduction in MK8 synthesis at 12.5 uM incubated for 1 hr by liquid scintillation counting method; format: cell membranes
[5] = tested on: Mycobacterium tuberculosis; assay: Bactericidal activity against Mycobacterium tuberculosis H37RvLP (ATCC 25618) at 50 to 100 uM; format: functional, organism-based; details: dose 50-100 µM
[6] = tested on: Mycobacterium tuberculosis; assay: Synergistic bactericidal activity against Mycobacterium tuberculosis H37RvLP (ATCC 25618) assessed as fold increase in activity upto 100 uM in presence of CPZ; format: functional
[7] = tested on: Mycobacterium tuberculosis; assay: Synergistic bactericidal activity against Mycobacterium tuberculosis H37RvLP (ATCC 25618) incubated for 14 days in presence of CPZ relative to control; format: functional; details: time 14 day
[8] = tested on: Mycobacterium tuberculosis; assay: Synergistic bactericidal activity against Mycobacterium tuberculosis H37RvLP (ATCC 25618) assessed as fold increase in activity at <12.5 uM in presence of IMP; format: functional
[9] = tested on: Mycobacterium tuberculosis; assay: Antibacterial activity against Mycobacterium tuberculosis H37Rv (ATCC 27294) assessed as bacterial growth inhibition incubated for 7 days by microdilution alamarBlue assay; format: functional; details: 168 h, time 7 day
[10] = tested on: Mycobacterium tuberculosis; assay: Synergistic bactericidal activity against Mycobacterium tuberculosis H37RvLP (ATCC 25618) at 25 uM in presence of Q203; format: functional, organism-based
[11] = tested on: Mycobacterium tuberculosis; assay: Synergistic bactericidal activity against Mycobacterium tuberculosis H37RvLP (ATCC 25618) at 25 uM in presence of IMP; format: functional, organism-based

SMILES: CCCN(C)c1ccc(CN2CCC(COc3ccc(Br)cc3)CC2)cc1
- IC50 ([1]; read-out: IC50): 12 µM
- GI50 [2]: 11 µM

SMILES: CCCN(C)c1ccc(CN2CCC(COc3ccc4ccccc4c3)CC2)cc1
- IC50 ([1]; read-out: IC50): 21 µM
- GI50 [2]: 7 µM

SMILES: COc1ccc2ccc(OCCCCCCCCN3CCCCC3)cc2c1
- MIC [3]: 8.1 µM (≈ 2.99 µg/mL)

SMILES: CCCN(C)c1ccc(CN2CCC(COc3cccc(Oc4ccccc4)c3)CC2)cc1
- inhibition [4]: inactive
- Activity [5]: Active
- fold change (FC) [6]: 1
- IC50 ([1]; read-out: IC50): 13 µM
- inhibition (INH) [7]: 100%
- GI50 [2]: 8 µM
- fold change (FC) [8]: >3

SMILES: CCCN(C)c1ccc(CN2CCC(COc3ccc(OC)cc3)CC2)cc1
- inhibition [4]: inactive
- GI50 [2]: 18 µM

SMILES: COc1ccc(-c2cc(NC(=O)c3ccc(Cl)cc3F)ccc2OC)cc1
- inhibition [4]: Active
- MIC90 [9]: 4.8 µg/mL (≈ 12.4 µM)

SMILES: CCCN(C)c1ccc(CN2CCC(COc3ccccc3F)CC2)cc1
- IC50 ([1]; read-out: IC50): 18 µM
- GI50 [2]: 35 µM

SMILES: CCCN(C)c1ccc(CN2CCC(COc3ccc(Cl)cc3Cl)CC2)cc1
- GI50 [2]: 13 µM

SMILES: CCCN(C)c1ccc(CN2CCC(COc3cccc(Nc4ccccc4C)c3)CC2)cc1
- inhibition [4]: inactive
- IC50 ([1]; read-out: IC50): 22 µM
- GI50 [2]: 16 µM

SMILES: CCCN(C)c1ccc(CN2CCC(COc3ccccc3Cl)CC2)cc1
- IC50 ([1]; read-out: IC50): 31 µM
- GI50 [2]: 39 µM

SMILES: CCCN(C)c1ccc(CN2CCC(COc3ccc(C)cn3)CC2)cc1
- IC50 ([1]; read-out: IC50): > 50 µM
- GI50 [2]: 31 µM

SMILES: COc1ccc2ccc(OCCCCCCCCNCCc3ccc(F)cc3)cc2c1
- MIC [3]: < 14.2 µM

SMILES: CCCN(C)c1ccc(CN2CCC(COC3[C@H]4C[C@@H]5C[C@@H](C[C@H]3C5)C4)CC2)cc1 (stereo partly specified)
- IC50 ([1]; read-out: IC50): 23 µM
- GI50 [2]: 6 µM

SMILES: CCCN(C)c1ccc(CN2C[C@@H]3C[C@H]2CN3Cc2ccc(N3CCOCC3)cc2)cc1
- IC50 ([1]; read-out: IC50): > 50 µM
- GI50 [2]: 149 µM

SMILES: CCCN(C)c1ccc(CN2CCC(COc3cccc(Br)c3)CC2)cc1
- inhibition [4]: inactive
- IC50 ([1]; read-out: IC50): 12 µM
- GI50 [2]: 14 µM

SMILES: CCCN(C)c1ccc(CN2CCC(COc3cc(=O)n(C)c4ccccc34)CC2)cc1
- IC50 ([1]; read-out: IC50): 102 µM
- GI50 [2]: 11 µM

SMILES: CCCN(C)c1ccc(CN2CCC(COc3noc4ccccc34)CC2)cc1
- inhibition [4]: inactive

SMILES: CCCN(C)c1ccc(CN2CCC(COc3cccc(C(=O)c4ccc(Cl)cc4)c3)CC2)cc1
- IC50 ([1]; read-out: IC50): 14 µM
- GI50 [2]: 8 µM

SMILES: CCCN(C)c1ccc(CN2CCC(COc3cccc(C(=O)N4CCOCC4)c3)CC2)cc1
- IC50 [1]: Not Active
- GI50 [2]: > 215 µM

SMILES: C=CCN(C)CCCCCCCCOc1ccc2ccc(OC)cc2c1
- MIC [3]: 8.4 µM (≈ 2.99 µg/mL)

SMILES: CCCN(C)c1ccc(CN2[C@@H]3CC[C@H]2CC(Oc2cccc(Oc4ccccc4)c2)C3)cc1 (stereo partly specified)
- IC50 ([1]; read-out: IC50): 27 µM
- GI50 [2]: 17 µM

SMILES: CCCN(C)c1ccc(CN2CCC(COc3ccccc3)CC2)cc1
- IC50 ([1]; read-out: IC50): 64 µM
- GI50 [2]: 27 µM

SMILES: CCCN(C)c1ccc(CN2CCC(CSc3ccccc3)CC2)cc1
- IC50 ([1]; read-out: IC50): 18 µM

SMILES: CCCN(C)c1ccc(CN2CCC3(CC2)CC(Oc2ccc(Cl)cc2)CO3)cc1 (stereo unspecified)
- IC50 ([1]; read-out: IC50): > 50 µM
- GI50 [2]: 25 µM

SMILES: CCCN(C)c1ccc(CN2CCC(COc3cccc(Cc4ccc(Cl)cc4)c3)CC2)cc1
- IC50 ([1]; read-out: IC50): 55 µM
- GI50 [2]: > 226 µM

SMILES: CCCN(C)c1ccc(CN2CCC(COc3nc4ccc(F)cc4s3)CC2)cc1
- IC50 ([1]; read-out: IC50): 31 µM
- IC50 [2]: 11 µM

SMILES: CCCN(C)c1ccc(CN2CCCC(Oc3cccc(Oc4ccccc4)c3)C2)cc1 (stereo unspecified)
- IC50 ([1]; read-out: IC50): 24 µM
- GI50 [2]: 37 µM

SMILES: CCCN(C)c1ccc(CN2CCC(CSc3ccccc3C(=O)OC)CC2)cc1
- inhibition [4]: inactive

SMILES: CCCN(C)c1ccc(CN2CCC(COc3c(F)cccc3F)CC2)cc1
- IC50 ([1]; read-out: IC50): 25 µM
- GI50 [2]: 28 µM

SMILES: CCCN(C)c1ccc(CN2CCC(COc3ccc(F)cc3)CC2)cc1
- IC50 ([1]; read-out: IC50): 33 µM
- GI50 [2]: 14 µM

SMILES: CCCN(C)c1ccc(CN2CCC(COc3ccc(Cl)cc3)CC2)cc1
- inhibition [4]: inactive
- Activity [5]: Active
- fold change (FC) [6]: 1
- IC50 ([1]; read-out: IC50): 22 µM
- inhibition (INH) [7]: 100%
- Activity [10]: Active
- GI50 [2]: 10 µM
- Activity [11]: Active

SMILES: c1ccc(Oc2cccc(OCC3CCN(Cc4ccc(N5CCOCC5)cc4)CC3)c2)cc1
- inhibition [4]: inactive
- GI50 [2]: 21 µM

SMILES: CCCN(C)c1ccc(CN2CCC3(CC2)CC(Oc2cccc(Oc4ccccc4)c2)CO3)cc1 (stereo unspecified)
- GI50 [2]: 9 µM
